Reference: article PMC8280112, “Substrate reduction therapy for Krabbe disease and metachromatic leukodystrophy using a novel ceramide galactosyltransferase inhibitor” (Scientific Reports, 2021)

Key:
wild-type mice [1] = experiment: PND15 wild-type mice tolerability study: clinical signs, wire hang, NCV, histology; type: in vivo, mouse
Procedure: (§1) Animals were euthanized with CO2 followed by cardiac puncture. Blood was collected via cardiac puncture and split for blood chemistry and hematology.
Beginning on the 2nd week of treatment mice were trained weekly for two weeks. Mice are placed on a wire grid, which is shaken to increase wire grabbing, and then immediately turned over. Mice are timed for their ability to hang from the inverted grid for 1 min. Three trials are performed, up to 1 min each, with a 30 s recovery period between trials. After training, mice were tested weekly and times recorded. The test was done with the grid held 10–12 in. over a box of clean shavings.
Brains were collected after removal of the calvarium, weighted, and halved following the midline. The brain was sectioned in the mid-sagittal plane with half placed in 10% NBF. One sciatic nerve and other organs [heart, lung, liver, spleen, kidney, adrenal glands, stomach, small intestine, large intestine, spinal cord (cervical, thoracic, lumbar), skin, testes, and lymph nodes] were also collected and fixed in 10% NBF. Sections of sciatic nerve were also fixed in 2% PFA, 2% glutaraldehyde, embedded, sectioned and stained with Toluidine blue before scanning. Images were analyzed to determine the G-ratio in the […].
Mice were anesthetized with isoflurane and placed on a thermostatically controlled heating pad to maintain body temperature. The recording electrode was inserted into the plantar muscles and a reference electrode was placed in the skin between toes. A pair of subcutaneous stimulating electrodes were placed distally on both sides of the ankle to stimulate the lateral plantar nerve. For proximal stimulation, the electrodes are moved to the level of the sciatic notch, to the depth of the sciatic nerve. […] Six distally-produced CMAPs were recorded and stored. The procedure was repeated using the proximal electrode pair, and current was increased until a CMAP that matches that produced by distal stimulation was evident. Six proximally-produced CMAPs were recorded and stored. The distance between the sites of stimulation was measured. NCV was later calculated using the two latencies and conduction distance. The H wave was recorded during the recording of the distally stimulated CMAPs.

Twitcher mice = experiment: Twitcher mouse brain immunostaining and cytokine analysis; type: in vivo; settings: 0.15 mg/kg IP three times per week, PND3 to PND28
Procedure: Five sections from a one in four series of sagittal brain sections from each mouse were stained on slides using a modified immunofluorescence protocol for the following antibodies—astrocytes (rabbit anti-GFAP, 1:1000, DAKO Z0334), microglia (rat anti-mouse CD68, 1:400, Bio-Rad MCA1957), and myelin basic protein (MBP) (rat anti-MBP, 1:500, Merck Millipore MAB386). Briefly, 40 µm sagittal sections were mounted on Superfrost Plus slides (Fisher Scientific), air-dried for 30 min, and blocked in 15% normal goat serum solution (Vector Labs, S-1000) in 2% TBS-T (1 × Tris Buffered Saline, pH 7.6 with 2% Triton-X100, Fisher Scientific) for 1 h. Slides were then incubated in primary antibody in 10% serum solution in 2% TBS-T for 2 h. Slides were washed three times in 1×TBS and incubated in fluorescent Alexa-Fluor labelled IgG secondary antibodies (Alexa-Fluor goat anti-rabbit 488, Invitrogen A-11008 and goat anti-rat 546, Invitrogen A-11081) in 10% serum solution in 2% TBS-T for 2 h, washed three times in 1×TBS, and incubated in a 1 × solution of TrueBlack lipofuscin autofluorescence quencher (Biotium, Fremont, CA, #23,007) in 70% ethanol for 2 min before rinsing in 1×TBS. Slides were coverslipped in fluoromount-G mounting medium with DAPI (Southern Biotech). To analyze the glial activation (GFAP-positive astrocytes + CD68-positive microglia) as well as MBP staining of punctate bodies in the cerebellar white matter, a semiautomated thresholding image analysis method was used with Image-Pro Premier software (Media Cybernetics). Briefly, this involved the collection of slide-scanned images at 5 × magnification for a one in four series of 3 sections per animal followed by demarcation of all regions (in this case the white matter of the cerebellum) of interest while maintaining the lamp intensity, video camera setup, and calibration constant throughout image capturing. Images were subsequently analyzed using Image-Pro Premier using an appropriate threshold that selected the foreground immunoreactivity above background. This threshold was then applied as a constant to all subsequent images analyzed per batch of animals and reagent used to determine the specific area of immunoreactivity for each antigen. Image densitometry for the average pixel luminance data was also gathered for MBP staining of the cerebellar white matter due to the higher density of staining. Slide-scanned images at 5 × magnification were collected for a one in forty-eight series of sections per animal followed by collecting the mean luminance data across all pixels from the regions of interest delineated using Image-Pro Premier.
Cytokine/chemokine analyses were performed on the brains from the same animals used for immunofluorescent imaging. […]

wild-type mice [2] = experiment: PND15 wild-type mice tolerability study: blood chemistry and hematology; type: in vivo, mouse; settings: PND15-PND70, Avg
Procedure: Maximum obtainable terminal blood collection was taken via cardiac puncture and split. 200 µL into clot-activating tubes for serum processing and the following chemistry panel: AST, ALT, CKMB and electrolytes. 220 µL stored on wet ice and used for CBC.
as §1

wild-type C57BL/6 mice = experiment: PND3 wild-type mouse repeat dose study: tolerability; type: in vivo
[3] = Mouse pharmacokinetics and brain concentration; type: in vivo; settings: C57BL/6 mice, single 20 mg/kg IP injection, plasma
Procedure: Blood was collected in K2 EDTA tube to obtain a plasma sample (2000g, 5 min at 4 °C). The brain was removed, rinsed with cold saline, dried on filter paper, weighed, and snap frozen by placing on dry ice. Brains were homogenized in 3 volumes of PBS (pH 7.4) by mini-bead-beater before sample extraction for bioanalysis. […] Pharmacokinetic parameters were calculated using WinNonlin V 8.2 statistics software (Pharsight Corporation).

[4] = wild-type mice, chronic, 2.3 and 5.4 mg/kg
[5] = 2.3 mg/kg IP three times per week
[6] = 5.4 mg/kg IP three times per week

Compound: C[C@H]1N(c2ccc(Br)cc2)C(=O)N(c2ccc(Br)cc2)C1(O)c1cccc(OC(F)(F)F)c1 (stereo partly drawn) [S202]
- testes histopathology (wild-type mice [1]; wild-type mice treated from PND15 to PND70): germ cell exfoliation with decreased germinal epithelial layers
- longer-term (8 week) tolerability (wild-type mice [1]; wild-type mice, IP three times per week from PND15, 2.3 mg/kg and 5.4 mg/kg): well tolerated with no mortality, change in weight, or grossly abnormal clinical signs
- brain and spinal cord histology (H&E, luxol fast blue/PAS) (wild-type mice [1]; wild-type mice, chronic treatment from PND15): widespread vacuolation
- sciatic nerve conduction velocity (NCV) (wild-type mice [1]; [4]): significant and dose-dependent reduction
- wire hang test (wild-type mice [1]; [4]): impaired performance on the wire hang test
- gait (wild-type mice [1]; wild-type mice, chronic, 2.3 and 5.4 mg/kg, some mice): mild gait abnormality
- CD68-positive macrophages in brain sections (Twitcher mice): trend toward reduction
- GROA level in brain homogenates (Twitcher mice): reduced the levels
- MCP-1 level in brain homogenates (Twitcher mice): reduced the levels
- marker of astrocytosis (GFAP) in brain sections (Twitcher mice): trend toward reduction
- #BASO (wild-type mice [2]; [5]): 0.02 10^3cells/µL
- #EOS (wild-type mice [2]; [5]): 0.14 10^3cells/µL
- #LUC (wild-type mice [2]; [5]): 0.11 10^3cells/µL
- #LYMPH (wild-type mice [2]; [5]): 4.3 10^3cells/µL
- #MONO (wild-type mice [2]; [5]): 0.12 10^3cells/µL
- #NEUT (wild-type mice [2]; [5]): 0.8 10^3cells/µL
- #RETIC (wild-type mice [2]; [5]): 291 10^9cells/L
- %BASO (wild-type mice [2]; [5]): 0.4%
- %EOS (wild-type mice [2]; [5]): 2.4%
- %LUC (wild-type mice [2]; [5]): 2%
- %LYMPH (wild-type mice [2]; [5]): 78.8%
- %MONO (wild-type mice [2]; [5]): 2.3%
- %NEUT (wild-type mice [2]; [5]): 14.3%
- %RETIC (wild-type mice [2]; [5]): 2.9%
- ALT (wild-type mice [2]; [5]): 257.2 IU/L
- AST (wild-type mice [2]; [5]): 283.5 IU/L
- CH (wild-type mice [2]; [5]): 13.3 pg
- CHCM (wild-type mice [2]; [5]): 27.5 g/dL
- CHR (wild-type mice [2]; [5]): 14.6 pg
- CHm (wild-type mice [2]; [5]): 14 pg
- CKMB (wild-type mice [2]; [5]): 250.5 U/L
- CL (wild-type mice [2]; [5]): 109.4 mmol/L
- HCT (wild-type mice [2]; [5]): 47.9%
- HDW (wild-type mice [2]; [5]): 1.9 g/dL
- HGB (wild-type mice [2]; [5]): 15.3 g/dL
- HGBCell (wild-type mice [2]; [5]): 13.2 g/dL
- K (wild-type mice [2]; [5]): 10.5 mmol/L
- MCH (wild-type mice [2]; [5]): 15.4 pg
- MCHC (wild-type mice [2]; [5]): 31.9 g/dL
- MCV (wild-type mice [2]; [5]): 48.2 fL
- MPM (wild-type mice [2]; [5]): 1.3 pg
- MPV (wild-type mice [2]; [5]): 5.4 fL
- NA (wild-type mice [2]; [5]): 148 mmol/L
- PDW (wild-type mice [2]; [5]): 37.1%
- PLT (wild-type mice [2]; [5]): 1.02e+06 µL⁻¹
- RBC (wild-type mice [2]; [5]): 9.9e+06 µL⁻¹
- RDW (wild-type mice [2]; [5]): 12.2%
- WBC (wild-type mice [2]; [5]): 5500 µL⁻¹
- #BASO (wild-type mice [2]; [6]): 0.013 10^3cells/µL
- #EOS (wild-type mice [2]; [6]): 0.4 10^3cells/µL
- #LUC (wild-type mice [2]; [6]): 0.047 10^3cells/µL
- #LYMPH (wild-type mice [2]; [6]): 3.8 10^3cells/µL
- #MONO (wild-type mice [2]; [6]): 0.08 10^3cells/µL
- #NEUT (wild-type mice [2]; [6]): 0.55 10^3cells/µL
- #RETIC (wild-type mice [2]; [6]): 285 10^9cells/L
- %BASO (wild-type mice [2]; [6]): 0.35%
- %EOS (wild-type mice [2]; [6]): 8.2%
- %LUC (wild-type mice [2]; [6]): 0.9%
- %LYMPH (wild-type mice [2]; [6]): 77.6%
- %MONO (wild-type mice [2]; [6]): 1.6%
- %NEUT (wild-type mice [2]; [6]): 11.4%
- %RETIC (wild-type mice [2]; [6]): 2.7%
- ALT (wild-type mice [2]; [6]): 99.5 IU/L
- AST (wild-type mice [2]; [6]): 132.8 IU/L
- CH (wild-type mice [2]; [6]): 13.1 pg
- CHCM (wild-type mice [2]; [6]): 27.3 g/dL
- CHR (wild-type mice [2]; [6]): 14.6 pg
- CHm (wild-type mice [2]; [6]): 13.8 pg
- CKMB (wild-type mice [2]; [6]): 126.4 U/L
- CL (wild-type mice [2]; [6]): 111.3 mmol/L
- HCT (wild-type mice [2]; [6]): 50.1%
- HDW (wild-type mice [2]; [6]): 1.93 g/dL
- HGB (wild-type mice [2]; [6]): 15.9 g/dL
- HGBCell (wild-type mice [2]; [6]): 13.7 g/dL
- K (wild-type mice [2]; [6]): 9.6 mmol/L
- MCH (wild-type mice [2]; [6]): 15.3 pg
- MCHC (wild-type mice [2]; [6]): 31.8 g/dL
- MCV (wild-type mice [2]; [6]): 48.1 fL
- MPM (wild-type mice [2]; [6]): 1.3 pg
- MPV (wild-type mice [2]; [6]): 5.82 fL
- NA (wild-type mice [2]; [6]): 150.9 mmol/L
- PDW (wild-type mice [2]; [6]): 46.63%
- PLT (wild-type mice [2]; [6]): 737200 µL⁻¹
- RBC (wild-type mice [2]; [6]): 1.04e+07 µL⁻¹
- RDW (wild-type mice [2]; [6]): 11.8%
- WBC (wild-type mice [2]; [6]): 4900 µL⁻¹
- phenotypes (wild-type C57BL/6 mice; daily IP PND3 to PND40, above 0.5 mg/kg): reduced weight gain, mild hind limb gait abnormalities, and some animal deaths
- tolerability (wild-type C57BL/6 mice; daily IP PND3 to PND40, lower doses): well tolerated at lower doses
- AUC(0-inf) [3]: 83800 ng·h/mL
- AUC(0-t) [3]: 59400 ng·h/mL
- Cmax [3]: 8500 ng/mL
- Tmax [3]: 1 h
- half-life ([3]; read-out: Terminal t1/2 (converted)): 12.2 h
